Laboratory results: the supplement of paper PMC10307832

Experiments:
Experiment in all cases: relative viability (nuclei count vs DMSO), 5 days (fraction); higher = more cells survive
CAL-12T = test system: CAL-12T
Procedure, shortened: (§1)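 Values are medians from duplicate plates. Each reflects relative viability, defined as the nuclei count of treated wells over that of vehicle wells. Lung cancer cell lines in 1536-well plates were pin-tool dosed one day after seeding with one drug alone or with a fixed anchor-drug dose plus five library-drug doses (not always all listed) in √10 steps, then fixed, stained and imaged at 4× after 5 days.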

COR-L 105 = test system: COR-L 105
Procedure, shortened: as §1

NCI-H1915 = test system: NCI-H1915
Procedure, shortened: as §1

HCC-827 = test system: HCC-827
Procedure, shortened: as §1

HCC-366 = test system: HCC-366
Procedure, shortened: as §1

NCI-H1437 = test system: NCI-H1437
Procedure, shortened: as §1

NCI-H1395 = test system: NCI-H1395
Procedure, shortened: as §1

NCI-H460 = test system: NCI-H460
Procedure, shortened: as §1

HOP-62 = test system: HOP-62
Procedure, shortened: as §1

NCI-H23 = test system: NCI-H23
Procedure, shortened: as §1

SK-LU-1 = test system: SK-LU-1
Procedure, shortened: as §1

NCI-H2009 = test system: NCI-H2009
Procedure, shortened: as §1

LCLC-103H = test system: LCLC-103H
Procedure, shortened: as §1

A-427 = test system: A-427
Procedure, shortened: as §1

NCI-H2228 = test system: NCI-H2228
Procedure, shortened: as §1

NCI-H1755 = test system: NCI-H1755
Procedure, shortened: as §1

NCI-H727 = test system: NCI-H727
Procedure, shortened: as §1

EMC-BAC-2 = test system: EMC-BAC-2
Procedure, shortened: as §1

HARA = test system: HARA
Procedure, shortened: as §1

NCI-H1975 = test system: NCI-H1975
Procedure, shortened: as §1

NCI-H1355 = test system: NCI-H1355
Procedure, shortened: as §1

SW 1573 = test system: SW 1573
Procedure, shortened: as §1

CC1(C)CCC(c2ccc(Cl)cc2)=C(CN2CCN(c3ccc(C(=O)NS(=O)(=O)c4ccc(N[C@H](CCN5CCOCC5)CSc5ccccc5)c(S(=O)(=O)C(F)(F)F)c4)cc3)CC2)C1 [Navitoclax] + Cc1cc(Nc2cc(N3CCN(C)CC3)nc(Sc3ccc(NC(=O)C4CC4)cc3)n2)n[nH]1 [Tozasertib] (partner 0.1 µM)
relative viability (CAL-12T; first compound 0.005 µM): 0.273
relative viability (CAL-12T; first compound 0.01581 µM): 0.354
relative viability (CAL-12T; first compound 0.05 µM): 0.312
relative viability (CAL-12T; first compound 0.1581 µM): 0.347
relative viability (CAL-12T; first compound 0.5 µM): 0.308
relative viability (COR-L 105; first compound 0.005 µM): 0.353
relative viability (COR-L 105; first compound 0.01581 µM): 0.338
relative viability (COR-L 105; first compound 0.05 µM): 0.369
relative viability (COR-L 105; first compound 0.1581 µM): 0.348
relative viability (COR-L 105; first compound 0.5 µM): 0.29
relative viability (NCI-H1915; first compound 0.005 µM): 0.42
relative viability (NCI-H1915; first compound 0.01581 µM): 0.422
relative viability (NCI-H1915; first compound 0.05 µM): 0.432
relative viability (NCI-H1915; first compound 0.1581 µM): 0.414
relative viability (NCI-H1915; first compound 0.5 µM): 0.418
relative viability (HCC-827; first compound 0.005 µM): 0.437
relative viability (HCC-827; first compound 0.01581 µM): 0.453
relative viability (HCC-827; first compound 0.05 µM): 0.384
relative viability (HCC-827; first compound 0.1581 µM): 0.39
relative viability (HCC-827; first compound 0.5 µM): 0.454
relative viability (HCC-366; first compound 0.005 µM): 0.109
relative viability (HCC-366; first compound 0.01581 µM): 0.11
relative viability (HCC-366; first compound 0.1581 µM): 0.118
relative viability (HCC-366; first compound 0.5 µM): 0.117
relative viability (NCI-H1437; first compound 0.005 µM): 0.408
relative viability (NCI-H1437; first compound 0.01581 µM): 0.407
relative viability (NCI-H1437; first compound 0.05 µM): 0.357
relative viability (NCI-H1437; first compound 0.1581 µM): 0.46
relative viability (NCI-H1437; first compound 0.5 µM): 0.386
relative viability (NCI-H1395; first compound 0.005 µM): 0.703
relative viability (NCI-H1395; first compound 0.01581 µM): 0.738
relative viability (NCI-H1395; first compound 0.05 µM): 0.757
relative viability (NCI-H1395; first compound 0.1581 µM): 0.787
relative viability (NCI-H1395; first compound 0.5 µM): 0.81
relative viability (NCI-H460; first compound 0.005 µM): 0.392
relative viability (NCI-H460; first compound 0.01581 µM): 0.327
relative viability (NCI-H460; first compound 0.05 µM): 0.37
relative viability (NCI-H460; first compound 0.1581 µM): 0.382
relative viability (NCI-H460; first compound 0.5 µM): 0.397
relative viability (HOP-62; first compound 0.005 µM): 0.389
relative viability (HOP-62; first compound 0.01581 µM): 0.4
relative viability (HOP-62; first compound 0.05 µM): 0.366
relative viability (HOP-62; first compound 0.1581 µM): 0.299
relative viability (HOP-62; first compound 0.5 µM): 0.374
relative viability (NCI-H23; first compound 0.005 µM): 0.398
relative viability (NCI-H23; first compound 0.01581 µM): 0.353
relative viability (NCI-H23; first compound 0.05 µM): 0.336
relative viability (NCI-H23; first compound 0.1581 µM): 0.325
relative viability (NCI-H23; first compound 0.5 µM): 0.352
relative viability (SK-LU-1; first compound 0.005 µM): 0.326
relative viability (SK-LU-1; first compound 0.01581 µM): 0.324
relative viability (SK-LU-1; first compound 0.05 µM): 0.308
relative viability (SK-LU-1; first compound 0.1581 µM): 0.318
relative viability (SK-LU-1; first compound 0.5 µM): 0.298
relative viability (NCI-H2009; first compound 0.005 µM): 0.692
relative viability (NCI-H2009; first compound 0.01581 µM): 0.79
relative viability (NCI-H2009; first compound 0.05 µM): 0.713
relative viability (NCI-H2009; first compound 0.1581 µM): 0.769
relative viability (NCI-H2009; first compound 0.5 µM): 0.711
relative viability (LCLC-103H; first compound 0.005 µM): 0.505
relative viability (LCLC-103H; first compound 0.01581 µM): 0.516
relative viability (LCLC-103H; first compound 0.05 µM): 0.442
relative viability (LCLC-103H; first compound 0.1581 µM): 0.404
relative viability (LCLC-103H; first compound 0.5 µM): 0.466
relative viability (A-427; first compound 0.005 µM): 0.199
relative viability (A-427; first compound 0.01581 µM): 0.192
relative viability (A-427; first compound 0.05 µM): 0.161
relative viability (A-427; first compound 0.1581 µM): 0.197
relative viability (A-427; first compound 0.5 µM): 0.213
relative viability (NCI-H2228; first compound 0.005 µM): 0.343
relative viability (NCI-H2228; first compound 0.01581 µM): 0.296
relative viability (NCI-H2228; first compound 0.1581 µM): 0.285
relative viability (NCI-H2228; first compound 0.5 µM): 0.212
relative viability (NCI-H1755; first compound 0.005 µM): 0.523
relative viability (NCI-H1755; first compound 0.01581 µM): 0.599
relative viability (NCI-H1755; first compound 0.05 µM): 0.441
relative viability (NCI-H1755; first compound 0.1581 µM): 0.453
relative viability (NCI-H1755; first compound 0.5 µM): 0.527
relative viability (NCI-H727; first compound 0.005 µM): 0.621
relative viability (NCI-H727; first compound 0.01581 µM): 0.692
relative viability (NCI-H727; first compound 0.1581 µM): 0.676
relative viability (NCI-H727; first compound 0.5 µM): 0.646
relative viability (EMC-BAC-2; first compound 0.005 µM): 0.273
relative viability (EMC-BAC-2; first compound 0.01581 µM): 0.27
relative viability (EMC-BAC-2; first compound 0.05 µM): 0.243
relative viability (EMC-BAC-2; first compound 0.1581 µM): 0.273
relative viability (EMC-BAC-2; first compound 0.5 µM): 0.263
relative viability (HARA; first compound 0.005 µM): 0.0833
relative viability (HARA; first compound 0.01581 µM): 0.113
relative viability (HARA; first compound 0.1581 µM): 0.0955
relative viability (HARA; first compound 0.5 µM): 0.0891
relative viability (NCI-H1975; first compound 0.005 µM): 0.791
relative viability (NCI-H1975; first compound 0.01581 µM): 0.917
relative viability (NCI-H1975; first compound 0.05 µM): 0.714
relative viability (NCI-H1975; first compound 0.1581 µM): 0.734
relative viability (NCI-H1975; first compound 0.5 µM): 0.815
relative viability (NCI-H1355; first compound 0.005 µM): 0.549
relative viability (NCI-H1355; first compound 0.01581 µM): 0.589
relative viability (NCI-H1355; first compound 0.05 µM): 0.456
relative viability (NCI-H1355; first compound 0.1581 µM): 0.585
relative viability (NCI-H1355; first compound 0.5 µM): 0.518
relative viability (SW 1573; first compound 0.005 µM): 0.186
relative viability (SW 1573; first compound 0.01581 µM): 0.147
relative viability (SW 1573; first compound 0.05 µM): 0.173
relative viability (SW 1573; first compound 0.1581 µM): 0.176
relative viability (SW 1573; first compound 0.5 µM): 0.103
